In ChEMBL document CHEMBL5154799, “Discovery of a Novel Stilbene Derivative as a Microtubule Targeting Agent Capable of Inducing Cell Ferroptosis” (J Med Chem, 2022):

How the values were obtained:
Assay type in all cases: functional, cell-based
A549 = experiment: Antiproliferative activity against human A549 cells assessed as cell viability incubated for 48 hrs by MTT assay; details: A549, 48 h
HeLa = experiment: Antiproliferative activity against human HeLa cells assessed as cell viability incubated for 48 hrs by MTT assay
A2780 = experiment: Antiproliferative activity against human A2780 cells assessed as cell viability incubated for 48 hrs by MTT assay; details: A2780, 48 h
HCT-8 = experiment: Antiproliferative activity against human HCT-8 cells assessed as cell viability incubated for 48 hrs by MTT assay; details: HCT-8, 48 h
MCF7 = experiment: Antiproliferative activity against human MCF7 cells assessed as cell viability incubated for 48 hrs by MTT assay; details: MCF7, 48 h

Compound	IC50 (A549)	IC50 (HeLa)	IC50 (A2780)	IC50 (HCT-8)	IC50 (MCF7)
COc1ccc(C(=O)c2ccc3c(c2)C=CC(C)(C)O3)c(NC(=O)CO)c1	90 nM	240 nM	130 nM	250 nM	200 nM
CCNCC(=O)Nc1cc(OC)ccc1C(=O)c1cc(OC)c(OC)c(OC)c1	750 nM	2100 nM	950 nM	1560 nM	1050 nM
C=C(c1cc(OC)c(OC)c(OC)c1)c1ccc(OC)cc1NC(=O)CNCC	260 nM	430 nM	450 nM	590 nM	860 nM
CCNCC(=O)Nc1cc(OC)ccc1C(=O)c1ccc(OC)c2c1OC(C)(C)C=C2	1050 nM	2690 nM	1980 nM	3690 nM	5200 nM
C=C(c1cc(OC)c(OC)c(OC)c1)c1ccc(OC)c(O)c1NC(=O)COCC	880 nM	690 nM	1230 nM	910 nM	1050 nM
COc1ccc(C(=O)c2ccc(OC)c3c2OC(C)(C)C=C3)c(NC(=O)CN(C)C)c1	890 nM	1050 nM	790 nM	1590 nM	2680 nM
COc1ccc(/C=C/C(=O)c2ccc(OC)c3c2OC(C)(C)C=C3)cc1 [MILLEPACHINE]	3950 nM	6030 nM	3090 nM	5020 nM	6980 nM
CNCC(=O)Nc1cc(OC)ccc1C(=O)c1ccc2c(c1)C=CC(C)(C)O2	800 nM	970 nM	850 nM	1010 nM	1210 nM
C=C(c1cc(OC)c(OC)c(OC)c1)c1ccc(OC)cc1NC(=O)CN(C)C	130 nM	370 nM	240 nM	340 nM	390 nM
C=C(c1ccc2c(c1)C=CC(C)(C)O2)c1ccc(OC)cc1NC(=O)CN	60 nM	160 nM	140 nM	220 nM	420 nM
C=C(c1cc(OC)c(OC)c(OC)c1)c1ccc(OC)cc1NC(=O)CNC	100 nM	140 nM	140 nM	190 nM	240 nM
COc1ccc(C(=O)c2ccc3c(c2)C=CC(C)(C)O3)c(NC(=O)CN)c1	310 nM	580 nM	590 nM	490 nM	680 nM
COc1ccc(C(=O)c2ccc(OC)c3c2C=CC(C)(C)O3)c(NC(=O)CBr)c1	2460 nM	3680 nM	2150 nM	4360 nM	3290 nM
COc1ccc(C(=O)c2ccc(OC)c3c2OC(C)(C)C=C3)c(NC(=O)CBr)c1	1210 nM	2140 nM	980 nM	3250 nM	2360 nM
COc1ccc(C(C)c2cc(OC)c(OC)c(OC)c2)c(NC(=O)CO)c1O (stereo not given)	180 nM	390 nM	280 nM	590 nM	790 nM
COc1ccc(C(=O)c2ccc3c(c2)C=CC(C)(C)O3)c(NC(=O)CBr)c1	1980 nM	3050 nM	1870 nM	3260 nM	2880 nM
CNCC(=O)Nc1cc(OC)ccc1C(=O)c1ccc(OC)c2c1C=CC(C)(C)O2	1370 nM	2170 nM	1590 nM	3460 nM	3040 nM
C=C(c1ccc2c(c1)C=CC(C)(C)O2)c1ccc(OC)cc1NC(=O)CNC	200 nM	410 nM	320 nM	590 nM	720 nM
C=C(c1ccc(OC)cc1NC(=O)CNC)c1ccc(OC)c2c1OC(C)(C)C=C2	150 nM	310 nM	210 nM	320 nM	400 nM

Compound	IC50 (A549)	IC50 (HeLa)	IC50 (A2780)	IC50 (HCT-8)	IC50 (MCF7)
C=C(c1ccc(OC)cc1NC(=O)CO)c1ccc(OC)c2c1C=CC(C)(C)O2	70 nM	100 nM	280 nM	470 nM	590 nM
C=C(c1ccc(OC)cc1NC(=O)CN)c1ccc(OC)c2c1C=CC(C)(C)O2	90 nM	200 nM	400 nM	520 nM	780 nM
COc1ccc(C(=O)c2ccc(OC)c3c2C=CC(C)(C)O3)c(NC(=O)CN)c1	420 nM	100 nM	890 nM	1050 nM	1250 nM
CNCC(=O)Nc1cc(OC)ccc1C(=O)c1ccc(OC)c2c1OC(C)(C)C=C2	620 nM	870 nM	620 nM	740 nM	820 nM
C=C(c1ccc2c(c1)C=CC(C)(C)O2)c1ccc(OC)cc1NC(=O)CNCC	1180 nM	1580 nM	1870 nM	2220 nM	3370 nM
CCNCC(=O)Nc1cc(OC)ccc1C(=O)c1ccc(OC)c2c1C=CC(C)(C)O2	2310 nM	4270 nM	4090 nM	7890 nM	7230 nM
C=C(c1cc(OC)c(OC)c(OC)c1)c1ccc(OC)cc1NC(=O)CN	40 nM	70 nM	30 nM	60 nM	190 nM
C=C(c1ccc2c(c1)C=CC(C)(C)O2)c1ccc(OC)cc1NC(=O)CN(C)C	430 nM	640 nM	510 nM	690 nM	940 nM
C=C(c1ccc(OC)cc1NC(=O)CN(C)C)c1ccc(OC)c2c1OC(C)(C)C=C2	270 nM	900 nM	420 nM	690 nM	500 nM
C=C(c1ccc(OC)cc1NC(=O)CNC)c1ccc(OC)c2c1C=CC(C)(C)O2	320 nM	500 nM	720 nM	980 nM	1010 nM
COc1ccc(C(=O)c2ccc(OC)c3c2OC(C)(C)C=C3)c(NC(=O)CN)c1	270 nM	410 nM	380 nM	370 nM	410 nM
COc1ccc(C(=O)c2ccc3c(c2)C=CC(C)(C)O3)c(NC(=O)CN(C)C)c1	1160 nM	1260 nM	1020 nM	2420 nM	3560 nM
C=C(c1ccc(OC)cc1NC(=O)CNCC)c1ccc(OC)c2c1OC(C)(C)C=C2	970 nM	1090 nM	1030 nM	1380 nM	2100 nM
C=C(c1ccc(OC)cc1NC(=O)CNCC)c1ccc(OC)c2c1C=CC(C)(C)O2	1870 nM	2590 nM	2010 nM	3050 nM	2920 nM
C=C(c1ccc(OC)cc1NC(=O)CN)c1ccc(OC)c2c1OC(C)(C)C=C2	50 nM	120 nM	80 nM	190 nM	220 nM
COc1ccc(C(=O)c2ccc(OC)c3c2C=CC(C)(C)O3)c(NC(=O)CN(C)C)c1	1850 nM	3620 nM	3990 nM	5660 nM	6530 nM
COc1ccc(C(=O)c2ccc(OC)c3c2C=CC(C)(C)O3)c(NC(=O)CO)c1	100 nM	310 nM	420 nM	630 nM	940 nM
C=C(c1cc(OC)c(OC)c(OC)c1)c1ccc(OC)c(O)c1NC(=O)CN(C)C	50 nM	120 nM	90 nM	110 nM	210 nM
